# Laboratory results published in PubChem BioAssay AID1745844 (Carcinogenic Potency Database (CPDB), 2022).
# Calls of active or inactive are those of the source. How the calls were made is not given here.
# Tested on: rodent lifetime carcinogenesis bioassay, tumor incidence TD50
# Test: carcinogenic potency in animals, long-term in vivo studies, CPDB compilation (AID 1745844)
# Settings: for TD50: in feed
smiles,measurement,setting,value
COc1ccccc1[N+](=O)[O-],TD50,"mouse, strain B6C3F1, females, site: all sites, lesion: malignant lymphoma, histiocytic type + malignant lymphoma, mixed type + malignant lymphoma, lymphocytic type + malignant lymph, dosed 103 weeks, study length 104 weeks",153 mg/kg/day
same,TD50,"mouse, strain B6C3F1, females, site: any site (literature study), lesion: several types, types named in the paper, dosed 103 weeks, study length 104 weeks",350 mg/kg/day
same,TD50,"mouse, strain B6C3F1, females, site: liver, lesion: hepatocellular adenoma + hepatoblastoma + hepatocellular carcinoma, dosed 103 weeks, study length 104 weeks",194 mg/kg/day
same,TD50,"mouse, strain B6C3F1, females, site: liver, lesion: hepatocellular adenoma + hepatocellular carcinoma, dosed 103 weeks, study length 104 weeks",194 mg/kg/day
same,TD50,"mouse, strain B6C3F1, females, site: liver, lesion: hepatocellular adenoma, dosed 103 weeks, study length 104 weeks",179 mg/kg/day
same,TD50,"mouse, strain B6C3F1, males, site: any site (literature study), lesion: several types, types named in the paper, dosed 103 weeks, study length 104 weeks",43500 mg/kg/day
same,TD50,"mouse, strain B6C3F1, males, site: liver, lesion: hepatoblastoma + hepatocellular carcinoma, dosed 103 weeks, study length 104 weeks",391 mg/kg/day
same,TD50,"mouse, strain B6C3F1, males, site: liver, lesion: hepatoblastoma, dosed 103 weeks, study length 104 weeks",428 mg/kg/day
same,TD50,"mouse, strain B6C3F1, males, site: liver, lesion: hepatocellular adenoma + hepatoblastoma + hepatocellular carcinoma, dosed 103 weeks, study length 104 weeks",198 mg/kg/day
same,TD50,"mouse, strain B6C3F1, males, site: liver, lesion: hepatocellular adenoma + hepatocellular carcinoma, dosed 103 weeks, study length 104 weeks",208 mg/kg/day
same,TD50,"mouse, strain B6C3F1, males, site: liver, lesion: hepatocellular adenoma, dosed 103 weeks, study length 104 weeks",177 mg/kg/day
same,TD50,"rat, strain Fischer 344, females, site: all sites, lesion: mononuclear-cell leukemia, dosed 103 weeks, study length 104 weeks",152 mg/kg/day
same,TD50,"rat, strain Fischer 344, females, site: any site (literature study), lesion: several types, types named in the paper, dosed 27 weeks, study length 104 weeks",10.7 mg/kg/day
same,TD50,"rat, strain Fischer 344, females, site: any site (literature study), lesion: several types, types named in the paper, dosed 103 weeks, study length 104 weeks",336 mg/kg/day
same,TD50,"rat, strain Fischer 344, females, site: colon, lesion: adenomatous polyp, dosed 27 weeks, study length 104 weeks",60.9 mg/kg/day
same,TD50,"rat, strain Fischer 344, females, site: colon, lesion: carcinoma, dosed 27 weeks, study length 104 weeks",1300 mg/kg/day
same,TD50,"rat, strain Fischer 344, females, site: forestomach, lesion: squamous-cell carcinoma + squamous-cell papilloma, dosed 103 weeks, study length 104 weeks",1270 mg/kg/day
same,TD50,"rat, strain Fischer 344, females, site: forestomach, lesion: squamous-cell papilloma, dosed 103 weeks, study length 104 weeks",3270 mg/kg/day
same,TD50,"rat, strain Fischer 344, females, site: kidney + large intestine + urinary bladder, lesion: transitional-cell carcinoma + transitional-cell papilloma + adenomatous polyp + carcinoma + sarcoma + squamous-cell carcinoma + squa, dosed 27 weeks, study length 104 weeks",12.9 mg/kg/day
same,TD50,"rat, strain Fischer 344, females, site: kidney, lesion: transitional-cell carcinoma + transitional-cell papilloma, dosed 27 weeks, study length 104 weeks",1240 mg/kg/day
same,TD50,"rat, strain Fischer 344, females, site: kidney, lesion: transitional-cell carcinoma, dosed 27 weeks, study length 104 weeks",3550 mg/kg/day
same,TD50,"rat, strain Fischer 344, females, site: kidney, lesion: transitional-cell papilloma, dosed 27 weeks, study length 104 weeks",1890 mg/kg/day
same,TD50,"rat, strain Fischer 344, females, site: large intestine, lesion: adenomatous polyp + carcinoma, dosed 27 weeks, study length 104 weeks",55 mg/kg/day
same,TD50,"rat, strain Fischer 344, females, site: large intestine, lesion: adenomatous polyp, dosed 27 weeks, study length 104 weeks",55 mg/kg/day
same,TD50,"rat, strain Fischer 344, females, site: large intestine, lesion: carcinoma, dosed 27 weeks, study length 104 weeks",1300 mg/kg/day
same,TD50,"rat, strain Fischer 344, females, site: liver, lesion: hepatocellular adenoma + hepatoblastoma + hepatocellular carcinoma, dosed 103 weeks, study length 104 weeks",1010 mg/kg/day
same,TD50,"rat, strain Fischer 344, females, site: liver, lesion: hepatocellular adenoma, dosed 103 weeks, study length 104 weeks",1010 mg/kg/day
same,TD50,"rat, strain Fischer 344, females, site: lung, lesion: alveolar/bronchiolar adenoma, dosed 103 weeks, study length 104 weeks",666 mg/kg/day
same,TD50,"rat, strain Fischer 344, females, site: rectum, lesion: adenomatous polyp, dosed 27 weeks, study length 104 weeks",560 mg/kg/day
same,TD50,"rat, strain Fischer 344, females, site: urinary bladder, lesion: sarcoma, dosed 27 weeks, study length 104 weeks",192 mg/kg/day
same,TD50,"rat, strain Fischer 344, females, site: urinary bladder, lesion: squamous-cell carcinoma + squamous-cell papilloma, dosed 27 weeks, study length 104 weeks",588 mg/kg/day
same,TD50,"rat, strain Fischer 344, females, site: urinary bladder, lesion: squamous-cell carcinoma, dosed 27 weeks, study length 104 weeks",2700 mg/kg/day
same,TD50,"rat, strain Fischer 344, females, site: urinary bladder, lesion: squamous-cell papilloma, dosed 27 weeks, study length 104 weeks",751 mg/kg/day
same,TD50,"rat, strain Fischer 344, females, site: urinary bladder, lesion: transitional-cell carcinoma + transitional-cell papilloma, dosed 27 weeks, study length 104 weeks",13 mg/kg/day
same,TD50,"rat, strain Fischer 344, females, site: urinary bladder, lesion: transitional-cell carcinoma, dosed 27 weeks, study length 104 weeks",13.2 mg/kg/day
same,TD50,"rat, strain Fischer 344, females, site: urinary bladder, lesion: transitional-cell papilloma, dosed 27 weeks, study length 104 weeks",543 mg/kg/day
same,TD50,"rat, strain Fischer 344, males, site: adrenal medulla, lesion: pheochromocytoma benign, bilateral + pheochromocytoma, benign, dosed 103 weeks, study length 104 weeks",89.6 mg/kg/day
same,TD50,"rat, strain Fischer 344, males, site: adrenal medulla, lesion: pheochromocytoma benign, bilateral + pheochromocytoma, malignant + pheochromocytoma, benign, dosed 103 weeks, study length 104 weeks",109 mg/kg/day
same,TD50,"rat, strain Fischer 344, males, site: all sites, lesion: mononuclear-cell leukemia, dosed 103 weeks, study length 104 weeks",25.9 mg/kg/day
same,TD50,"rat, strain Fischer 344, males, site: any site (literature study), lesion: several types, types named in the paper, dosed 27 weeks, study length 104 weeks",3.97 mg/kg/day
same,TD50,"rat, strain Fischer 344, males, site: any site (literature study), lesion: several types, types named in the paper, dosed 103 weeks, study length 104 weeks",21.4 mg/kg/day
same,TD50,"rat, strain Fischer 344, males, site: cecum, lesion: adenomatous polyp, dosed 27 weeks, study length 104 weeks",21.3 mg/kg/day
same,TD50,"rat, strain Fischer 344, males, site: colon, lesion: adenomatous polyp, dosed 27 weeks, study length 104 weeks",17.2 mg/kg/day
same,TD50,"rat, strain Fischer 344, males, site: colon, lesion: carcinoma, dosed 27 weeks, study length 104 weeks",573 mg/kg/day
same,TD50,"rat, strain Fischer 344, males, site: forestomach, lesion: squamous-cell carcinoma + squamous-cell papilloma, dosed 103 weeks, study length 104 weeks",304 mg/kg/day
same,TD50,"rat, strain Fischer 344, males, site: forestomach, lesion: squamous-cell carcinoma, dosed 103 weeks, study length 104 weeks",715 mg/kg/day
same,TD50,"rat, strain Fischer 344, males, site: forestomach, lesion: squamous-cell papilloma, dosed 103 weeks, study length 104 weeks",543 mg/kg/day
same,TD50,"rat, strain Fischer 344, males, site: kidney + large intestine + urinary bladder, lesion: transitional-cell carcinoma + transitional-cell papilloma + adenomatous polyp + carcinoma + sarcoma + squamous-cell carcinoma + squa, dosed 27 weeks, study length 104 weeks",7.47 mg/kg/day
same,TD50,"rat, strain Fischer 344, males, site: kidney, lesion: transitional-cell carcinoma + transitional-cell papilloma, dosed 27 weeks, study length 104 weeks",83.6 mg/kg/day
same,TD50,"rat, strain Fischer 344, males, site: kidney, lesion: transitional-cell carcinoma, dosed 27 weeks, study length 104 weeks",90.9 mg/kg/day
same,TD50,"rat, strain Fischer 344, males, site: kidney, lesion: transitional-cell papilloma, dosed 27 weeks, study length 104 weeks",1040 mg/kg/day
same,TD50,"rat, strain Fischer 344, males, site: kidney, lesion: tubule adenoma + tubule carcinoma, dosed 103 weeks, study length 104 weeks",251 mg/kg/day
same,TD50,"rat, strain Fischer 344, males, site: kidney, lesion: tubule adenoma, dosed 103 weeks, study length 104 weeks",435 mg/kg/day
same,TD50,"rat, strain Fischer 344, males, site: kidney, lesion: tubule carcinoma, dosed 103 weeks, study length 104 weeks",612 mg/kg/day
same,TD50,"rat, strain Fischer 344, males, site: large intestine, lesion: adenomatous polyp + carcinoma, dosed 27 weeks, study length 104 weeks",8.54 mg/kg/day
same,TD50,"rat, strain Fischer 344, males, site: large intestine, lesion: adenomatous polyp, dosed 27 weeks, study length 104 weeks",8.58 mg/kg/day
same,TD50,"rat, strain Fischer 344, males, site: large intestine, lesion: carcinoma, dosed 27 weeks, study length 104 weeks",573 mg/kg/day
same,TD50,"rat, strain Fischer 344, males, site: liver, lesion: hepatocellular adenoma + hepatoblastoma + hepatocellular carcinoma, dosed 103 weeks, study length 104 weeks",330 mg/kg/day
same,TD50,"rat, strain Fischer 344, males, site: preputial gland, lesion: carcinoma + carcinoma, bilateral, dosed 103 weeks, study length 104 weeks",195 mg/kg/day
same,TD50,"rat, strain Fischer 344, males, site: rectum, lesion: adenomatous polyp, dosed 27 weeks, study length 104 weeks",51.8 mg/kg/day
same,TD50,"rat, strain Fischer 344, males, site: testis, lesion: interstitial-cell adenoma, bilateral + interstitial-cell adenoma, dosed 103 weeks, study length 104 weeks",21.3 mg/kg/day
same,TD50,"rat, strain Fischer 344, males, site: urinary bladder, lesion: sarcoma, dosed 27 weeks, study length 104 weeks",292 mg/kg/day
same,TD50,"rat, strain Fischer 344, males, site: urinary bladder, lesion: squamous-cell carcinoma + squamous-cell papilloma, dosed 27 weeks, study length 104 weeks",273 mg/kg/day
same,TD50,"rat, strain Fischer 344, males, site: urinary bladder, lesion: squamous-cell carcinoma, dosed 27 weeks, study length 104 weeks",422 mg/kg/day
same,TD50,"rat, strain Fischer 344, males, site: urinary bladder, lesion: squamous-cell papilloma, dosed 27 weeks, study length 104 weeks",482 mg/kg/day
same,TD50,"rat, strain Fischer 344, males, site: urinary bladder, lesion: transitional-cell carcinoma + transitional-cell papilloma, dosed 27 weeks, study length 104 weeks",7.48 mg/kg/day
same,TD50,"rat, strain Fischer 344, males, site: urinary bladder, lesion: transitional-cell carcinoma, dosed 27 weeks, study length 104 weeks",8.28 mg/kg/day
same,TD50,"rat, strain Fischer 344, males, site: urinary bladder, lesion: transitional-cell papilloma, dosed 27 weeks, study length 104 weeks",75.6 mg/kg/day
Cc1ccccc1S(N)(=O)=O,TD50,"rat, strain Charles River CD (Sprague-Dawley), females, site: liver, lesion: Kupffer-cell sarcoma, dosed 142 weeks, study length 142 weeks",8520 mg/kg/day
same,TD50,"rat, strain Charles River CD (Sprague-Dawley), females, site: liver, lesion: neoplastic nodule, dosed 142 weeks, study length 142 weeks",21700 mg/kg/day
same,TD50,"rat, strain Charles River CD (Sprague-Dawley), females, site: mammary gland, lesion: adenocarcinoma, dosed 142 weeks, study length 142 weeks",12.2 mg/kg/day
same,TD50,"rat, strain Charles River CD (Sprague-Dawley), males, site: liver, lesion: angiosarcoma, dosed 142 weeks, study length 142 weeks",17200 mg/kg/day
same,TD50,"rat, strain Charles River CD (Sprague-Dawley), males, site: liver, lesion: neoplastic nodule, dosed 142 weeks, study length 142 weeks",35900 mg/kg/day
same,TD50,"rat, strain Sprague-Dawley, both sexes, site: all sites, lesion: leukemia, dosed 133 weeks, study length 142 weeks",375 mg/kg/day
same,TD50,"rat, strain Sprague-Dawley, both sexes, site: any site (literature study), lesion: malignant tumor, dosed 133 weeks, study length 142 weeks",13300 mg/kg/day
same,TD50,"rat, strain Sprague-Dawley, both sexes, site: urinary bladder, lesion: several types, types named in the paper, dosed 133 weeks, study length 142 weeks",3960 mg/kg/day
same,carcinogen call,"rat, strain Wistar, females, in drinking water, site: liver, lesion: hepatocellular carcinoma, dosed 102 weeks, study length 102 weeks",negative (inactive)
